In the assay the test system is androgen receptor (AR). Briefly: AR ELISA assay (androgen receptor degradation). It counts as cell-based. The note with it: LNCaP and/or VCaP cells, 5 hours drug treatment; for AR Dmax: % degraded. As to the method: 5. AR ELISA Assay Protocol
Compounds were evaluated in this assay in LNCaP and/or VCaP cells utilizing similar protocols. The protocols used with VCaP cells are described below. The androgen receptor ELISA assay was performed using PathScan AR Sandwich ELISA (Cell Signaling Catalog #12850) according to the following assay steps:
VCaP cells were seeded at 40,000 cells/well at a volume of 100 µL/well in VCaP assay medium [Phenol red free RPMI (Gibco Cat #11835-030); 5% Charcoal Stripped (Dextran treated) FBS (Omega Scientific, Cat #FB-04); 1% penstrep (Life Technologies, Gibco Cat #: 10378-016)] in Corning 3904 plates. The cells were incubated for a minimum of 3 days. Cells were dosed with PROTACs diluted in 0.01% DMSO and the drug treatment was allowed for 5 hours.
AR ELISA (Cell Signaling) was performed as follows. 1×Cell Signaling Cell lysis buffer was made (Catalogue #9803; comes with the kit). Media from the treated wells is aspirated, and 100 μL 1×cell lysis buffer/well is added. The cells were placed on a shaker for 10 minutes at 4° C. Twenty microliters of lysate was transferred to 100 μl of Diluent in ELISA plate ([…]-0.075 μg/ml). The lysate-diluent mixture was shaken for 30 minutes at 37° C. Allow mouse AR antibody, anti-mouse antibody, TMB, and STOP solution to come to room temperature. The 1×ELISA buffer included in kit was made and loaded in the reservoir. Media from the plates was discarded, the ELISA plate tapped hard on paper towel, and washed 4×200 μl ELISA wash buffer using a plate washer.
One-hundred (100) μL/well of mouse AR detection Ab was added; the plates were covered and shaken at 37° C. for 1 hour; media was discarded from the plates, the plates were tapped on a paper towel, washed 4× with 200 μL ELISA wash buffer with a plate washer.
One-hundred (100) μL/well of anti-mouse—HRP conjugated Ab (comes with the kit) was added; the plates were covered and shaken at 37° C. for 30 minutes; the TMB reagent was allowed to come to room temperature; the media was discard from the plate, the plates were tapped on paper towel, washed 4× with 200 μL of ELISA wash buffer; the plates were tapped the plates on paper towel. One-hundred (100) μL of TMB was added and the plates shaken for 2 minutes—while watching for color development. One-hundred (100) μL Stop solution was added when light blue color developed. Plates were shaken and read at 450 nm.

On to `CN(C(=O)c1ccc(OCCCCCN2CCN(c3ccc(C(=O)N[C@H]4C(C)(C)[C@H](Oc5ccc(C#N)c(Cl)c5)C4(C)C)cn3)CC2)cc1)C1CCC(=O)NC1=O` (mixture of isomers) [PROTAC-49, rac-N-((1r,3r)-3-(3-chloro-4-cyanophenoxy)-2,2,4,4-tetramethylcyclobutyl)-6-(4-(5-(4-((2,6-dioxopiperidin-3-yl)(methyl)carbamoyl)phenoxy)pentyl)piperazin-1-yl)nicotinamide], for which the “AR Dmax” value is “C (C <= 50)” and the 50% degradation concentration (DC50) is no less than 100 nM.
For `CC1(C)[C@H](NC(=O)c2ccc(N3CCN(CCCCCOc4ccc5c(c4)C(=O)N(c4ccc(C#N)[nH]c4=O)C5=O)CC3)nc2)C(C)(C)[C@H]1Oc1ccc(C#N)c(Cl)c1` [PROTAC-42, N-((1r,3r)-3-(3-chloro-4-cyanophenoxy)-2,2,4,4-tetramethylcyclobutyl)-6-(4-(5-((2-(6-cyano-2-oxo-1,2-dihydropyridin-3-yl)-1,3-dioxoisoindolin-5-yl)oxy)pentyl)piperazin-1-yl)nicotinamide] the same measures were “C (C <= 50)” and 10 to 100 nM.
For `CC1(C)[C@H](NC(=O)c2ccc(CCCN3CCC4(CC3)CC(=O)N(C3CCC(=O)NC3=O)C4=O)cc2)C(C)(C)[C@H]1Oc1ccc(C#N)c(Cl)c1` (mixture of isomers) [PROTAC-76, rac-N-((1r,3r)-3-(3-chloro-4-cyanophenoxy)-2,2,4,4-tetramethylcyclobutyl)-4-(3-(2-(2,6-dioxopiperidin-3-yl)-1,3-dioxo-2,8-diazaspiro[4.5]decan-8-yl)propyl)benzamide] the same measures were “C (C <= 50)” and no less than 100 nM.
For `Cn1c(-c2ccc(N3CCN(CC4CCN(c5ccc(C(=O)N[C@H]6C(C)(C)[C@H](Oc7ccc(C#N)c(Cl)c7)C6(C)C)cc5)CC4)CC3)cc2)nn(C2CCC(=O)NC2=O)c1=O` (stereo partly drawn) [PROTAC-70, N-((1r,3r)-3-(3-chloro-4-cyanophenoxy)-2,2,4,4-tetramethylcyclobutyl)-4-(4-((4-(4-(1-(2,6-dioxopiperidin-3-yl)-4-methyl-5-oxo-4,5-dihydro-1H-1,2,4-triazol-3-yl)phenyl)piperazin-1-yl)methyl)piperidin-1-yl)benzamide] the same measures were “A (A > 75)” and less than 1 nM.
For `CC1(C)[C@H](NC(=O)c2ccc(N3CCN(CCCCCCOc4cnn(C5CCC(=O)NC5=O)c(=O)c4)CC3)nc2)C(C)(C)[C@H]1Oc1ccc(C#N)c(Cl)c1` (stereo partly drawn) [PROTAC-29, N-((1r,3r)-3-(3-chloro-4-cyanophenoxy)-2,2,4,4-tetramethylcyclobutyl)-6-(4-(6-((1-(2,6-dioxopiperidin-3-yl)-6-oxo-1,6-dihydropyridazin-4-yl)oxy)hexyl)piperazin-1-yl)nicotinamide], the “AR Dmax” value is given as “B (50 < B <= 75)” and the DC50 was less than 1 nM.
The corresponding values for `CC1(C)[C@H](NC(=O)c2ccc(N3CCC(CN4CCN(c5cnn(C6CCC(=O)NC6=O)c(=O)c5)CC4)CC3)cc2)C(C)(C)[C@H]1Oc1ccc(C#N)c(Cl)c1` (mixture of isomers) [PROTAC-62, rac-N-((1r,3r)-3-(3-chloro-4-cyanophenoxy)-2,2,4,4-tetramethylcyclobutyl)-4-(4-((4-(1-(2,6-dioxopiperidin-3-yl)-6-oxo-1,6-dihydropyridazin-4-yl)piperazin-1-yl)methyl)piperidin-1-yl)benzamide] are “B (50 < B <= 75)” and less than 1 nM.
The corresponding values for `N#Cc1ccc(O[C@H]2CC[C@H](NC(=O)c3ccc(N4CCC(CN5CCN(c6cc(C(=O)NC7CCC(=O)NC7=O)c(C(=O)O)cc6F)CC5)CC4)nn3)CC2)cc1Cl` (stereo partly drawn) [PROTAC-58, 4-(4-((1-(6-(((1r,4r)-4-(3-chloro-4-cyanophenoxy)cyclohexyl)carbamoyl)pyridazin-3-yl)piperidin-4-yl)methyl)piperazin-1-yl)-2-((2,6-dioxopiperidin-3-yl)carbamoyl)-5-fluorobenzoic acid] are “B (50 < B <= 75)” and 10 to 100 nM.
`CC1(C)[C@H](NC(=O)c2ccc(N3CCN(CCCCCOc4ccc5c(c4)C(=O)N(c4ccc(F)cc4F)C5=O)CC3)nc2)C(C)(C)[C@H]1Oc1ccc(C#N)c(Cl)c1` [PROTAC-41, N-((1r,3r)-3-(3-chloro-4-cyanophenoxy)-2,2,4,4-tetramethylcyclobutyl)-6-(4-(5-((2-(2,4-difluorophenyl)-1,3-dioxoisoindolin-5-yl)oxy)pentyl)piperazin-1-yl)nicotinamide]: the “AR Dmax” value is “C (C <= 50)” and the DC50 was no less than 100 nM.
The corresponding values for `CC1(C)[C@H](NC(=O)c2ccc(N3CCN(CCCOc4ccc(C(=O)NC5CCC(=O)NC5=O)nc4)CC3)nc2)C(C)(C)[C@H]1Oc1ccc(C#N)c(Cl)c1` (stereo partly drawn) [PROTAC-50, 5-(3-(4-(5-(((1r,3r)-3-(3-chloro-4-cyanophenoxy)-2,2,4,4-tetramethylcyclobutyl)carbamoyl)pyridin-2-yl)piperazin-1-yl)propoxy)-N-(2,6-dioxopiperidin-3-yl)picolinamide] are “B (50 < B <= 75)” and less than 1 nM.
As for `CC1(C)[C@H](NC(=O)c2ccc(N3CCC(CN4CCN(c5ccc(C(=O)NC6CCC(=O)NC6=O)nc5)CC4)CC3)nn2)C(C)(C)[C@H]1Oc1ccc(C#N)c(Cl)c1` (mixture of isomers) [PROTAC-54, rac-N-((1r,3r)-3-(3-chloro-4-cyanophenoxy)-2,2,4,4-tetramethylcyclobutyl)-6-(4-((4-(6-((2,6-dioxopiperidin-3-yl)carbamoyl)pyridin-3-yl)piperazin-1-yl)methyl)piperidin-1-yl)pyridazine-3-carboxamide], the “AR Dmax” value is recorded as “B (50 < B <= 75)” and the DC50 is 1 to 10 nM.
For `CC1(C)[C@H](NC(=O)c2ccc(N3CCN(CCCOc4cnn(C5CCC(=O)NC5=O)c(=O)c4)CC3)nc2)C(C)(C)[C@H]1Oc1ccc(C#N)c(Cl)c1` (mixture of isomers) [PROTAC-60, rac-N-((1r,3r)-3-(3-chloro-4-cyanophenoxy)-2,2,4,4-tetramethylcyclobutyl)-6-(4-(3-((1-(2,6-dioxopiperidin-3-yl)-6-oxo-1,6-dihydropyridazin-4-yl)oxy)propyl)piperazin-1-yl)nicotinamide] the same measures were “C (C <= 50)” and no less than 100 nM.
As to `N#Cc1ccc(O[C@H]2CC[C@H](NC(=O)c3ccc(N4CCC(CN5CCN(c6ccc(C(=O)NC7CCC(=O)NC7=O)cc6)CC5)CC4)nn3)CC2)cc1Cl` (stereo partly drawn) [PROTAC-59, N-((1r,4r)-4-(3-chloro-4-cyanophenoxy)cyclohexyl)-6-(4-((4-(4-((2,6-dioxopiperidin-3-yl)carbamoyl)phenyl)piperazin-1-yl)methyl)piperidin-1-yl)pyridazine-3-carboxamide], the “AR Dmax” value is reported as “A (A > 75)” and the DC50 is less than 1 nM.
For `CC1(C)[C@H](NC(=O)c2ccc(N3CCN(CCOCCOc4cccc5c4CN(c4ccc(F)cc4F)C5=O)CC3)nc2)C(C)(C)[C@H]1Oc1ccc(C#N)c(Cl)c1` [PROTAC-40, rac-N-((1r,3r)-3-(3-chloro-4-cyanophenoxy)-2,2,4,4-tetramethylcyclobutyl)-6-(4-(2-(2-((2-(2,4-difluorophenyl)-1-oxoisoindolin-4-yl)oxy)ethoxy)ethyl)piperazin-1-yl)nicotinamide] the same measures were “C (C <= 50)” and no less than 100 nM.
For `CC1(C)[C@H](NC(=O)c2ccc(CCCCN3CCC4(CC3)CC(=O)N(C3CCC(=O)NC3=O)C4=O)cc2)C(C)(C)[C@H]1Oc1ccc(C#N)c(Cl)c1` (mixture of isomers) [PROTAC-78, rac-N-((1r,3r)-3-(3-chloro-4-cyanophenoxy)-2,2,4,4-tetramethylcyclobutyl)-4-(4-(2-(2,6-dioxopiperidin-3-yl)-1,3-dioxo-2,8-diazaspiro[4.5]decan-8-yl)butyl)benzamide] the same measures were “C (C <= 50)” and no less than 100 nM.
`CC1(C)[C@H](NC(=O)c2ccc(N3CCN(CCCCCOc4ccc5c(-n6ccc(=O)[nH]c6=O)cncc5c4)CC3)nc2)C(C)(C)[C@H]1Oc1ccc(C#N)c(Cl)c1` [PROTAC-79, N-((1r,3r)-3-(3-chloro-4-cyanophenoxy)-2,2,4,4-tetramethylcyclobutyl)-6-(4-(5-((4-(2,4-dioxo-3,4-dihydropyrimidin-1(2H)-yl)isoquinolin-7-yl)oxy)pentyl)piperazin-1-yl)nicotinamide]: the “AR Dmax” value is reported as “C (C <= 50)” and the DC50 was in the range of 1 to 10 nM.

For the origin of these results see patent US20250313547A1, “CEREBLON LIGANDS AND BIFUNCTIONAL COMPOUNDS COMPRISING THE SAME” (Arvinas Operations, Inc., priority 2017, published 2025).
